Source: patent EP1683514B1, “Process for the preparation of concentrated suspensions of drugs and kit thereof” (Eratech S.r.l., priority 2005, dated 2006)

Experiments:
[1] = Purity test after β or γ irradiation (degradation of the pharmaceutical substance); type: physicochemical; conditions: powder
Description: A test of microbial count was then carried out on the irradiated suspensions to determine if a satisfactory sterility was achieved. A purity test was also carried out to determine if any degradation of the pharmaceutical substance budesonide was provoked by the irradiation treatment. As a comparison, a test of microbial count and purity was carrier out also on a sample of micronized budesonide powder. A test of microbial count was then carried out on the irradiated suspensions to determine if a satisfactory sterility was achieved. A purity test was also carried out to determine if any degradation of the pharmaceutical substance BDP was provoked by the irradiation treatment. As a comparison, a test of microbial count and purity was carrier out also on a sample of micronized BDP powder.

[2] = Particle size distribution of the micronized powder; type: physicochemical
Description: Micronized Beclomethasone Dipropionate (BDP) powder was added slowly under stirring the solution so obtained. The micronized powder had the following particle size distribution: d(0.1) 0.44 µm, d(0.5) 1.13 µm e d(0.9) 2.42 µm.
Micronized Budesonide powder was added slowly under stirring the solution so obtained. The micronized powder had the following particle size distribution: d(0.1) 0.50 µm, d(0.5) 1.39µm; d(0.9) 3.15 µm.
180 mg of BDP micronized powder were added to the solution so prepared. PSD of the powder was: d(0.1) 0.44 µm, d(0.5) 1.13 µm e d(0.9) 2.42 µm, namely the same PSD of the BDP powder used to prepare the concentrated suspensions of examples 1 - 4.

Purity ([1]; BETA IRRADIATION 0 KGy): 99.73% | Purity ([1]; BETA IRRADIATION 2 KGy): 99.73% | Purity ([1]; BETA IRRADIATION 4 KGy): 99.66% | Purity ([1]; BETA IRRADIATION 6 KGy): 99.67% | Purity ([1]; BETA IRRADIATION 8 KGy): 99.51% | Purity ([1]; BETA IRRADIATION 10 KGy): 99.49% | Purity ([1]; GAMMA IRRADIATION 0 KGy): 99.73% | Purity ([1]; GAMMA IRRADIATION 2 KGy): 99.73% | Purity ([1]; GAMMA IRRADIATION 4 KGy): 99.68% | Purity ([1]; GAMMA IRRADIATION 6 KGy): 99.70% | Purity ([1]; GAMMA IRRADIATION 8 KGy): 99.07% | particle size distribution d(0.1) [2]: 0.44 µm | particle size distribution d(0.5) [2]: 1.13 µm | particle size distribution d(0.9) [2]: 2.42 µm
Compound: CCC(=O)OCC(=O)[C@@]1(OC(=O)CC)[C@@H](C)C[C@H]2[C@@H]3CCC4=CC(=O)C=C[C@]4(C)[C@@]3(Cl)[C@@H](O)C[C@@]21C [BDP Powder, Beclomethasone Dipropionate]
